Measurements taken from PubChem BioAssay (NCI).
Values joined by “and” are separate entries in the source; they are usually repeats but may differ in a detail not shown here. Identical values can stand only once.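 Interpolation was linear, between the two tested concentrations surrounding the appropriate level; five concentrations were tested over 48 hours in 96-well plates. GI50: concentration for 50% inhibition of growth. Definition used: TGI = concentration required for complete inhibition of growth.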

Legend:
Assay in all cases: DTP human tumour cell line panel, 48 h
SN12C renal = tested on: SN12C renal
UACC-257 melanoma = tested on: UACC-257 melanoma
SK-MEL-28 melanoma = tested on: SK-MEL-28 melanoma
SF-268 CNS = tested on: SF-268 CNS
PC-3 prostate = tested on: PC-3 prostate
SR leukemia = tested on: SR leukemia
CCRF-CEM leukemia = tested on: CCRF-CEM leukemia
KM12 colon = tested on: KM12 colon
NCI-H522 lung = tested on: NCI-H522 lung
786-0 renal = tested on: 786-0 renal

SMILES | GI50 (SN12C renal) | TGI (SN12C renal) | GI50 (UACC-257 melanoma) | TGI (UACC-257 melanoma) | GI50 (SK-MEL-28 melanoma) | TGI (SK-MEL-28 melanoma) | GI50 (SF-268 CNS) | TGI (SF-268 CNS) | GI50 (PC-3 prostate) | TGI (PC-3 prostate) | GI50 (SR leukemia) | TGI (SR leukemia) | GI50 (CCRF-CEM leukemia) | TGI (CCRF-CEM leukemia) | GI50 (KM12 colon) | TGI (KM12 colon) | GI50 (NCI-H522 lung) | TGI (NCI-H522 lung) | GI50 (786-0 renal) | TGI (786-0 renal)
N#Cc1nn(-c2cc(=O)[nH]c3ccc(Br)cc23)c(N)c1C#N | > 100 µM | > 100 µM | > 100 µM | > 100 µM | > 100 µM | > 100 µM | 67 µM | > 100 µM | > 100 µM | > 100 µM | 74.2 µM | > 100 µM | > 100 µM | > 100 µM | > 100 µM | > 100 µM | 22.7 µM | 86.4 µM | > 100 µM | > 100 µM
Cc1ccc(C2=NN(c3ccc(S(N)(=O)=O)cc3)C(c3cn(-c4ccccc4)nc3-c3ccccc3)C2)cc1 (stereo not given) | 2.23 µM | 5 µM | 29.6 µM | > 100 µM | 39.2 µM | > 100 µM | 25.7 µM | > 100 µM | 3.32 µM | > 100 µM | 5.92 µM | > 100 µM | > 100 µM | > 100 µM | 4.27 µM | > 100 µM | 25.1 µM | > 100 µM | 4.69 µM | > 100 µM
O=[N+]([O-])c1cc2c(c([N+](=O)[O-])c1)Nc1ccccc1O2 | 6 µM | > 100 µM | 3.74 µM | 39.1 µM | 19.5 µM | > 100 µM | 6.53 µM | > 100 µM | 4.12 µM | 34 µM | 5.46 µM | > 100 µM | 13.2 µM | > 100 µM | 6.68 µM | > 100 µM | 2.78 µM | 31.4 µM | 5.81 µM | 39.1 µM
C=C(CN(C)C)C(=O)c1ccc(Oc2ccccc2)cc1 | – | 16.4 µM | – | 17.7 µM | – | 17.4 µM | – | 32.5 µM | – | 11.6 µM | – | 4.24 µM | – | 14.6 µM | – | 29.8 µM | – | 2.72 µM | – | 4.99 µM
O=C(NCCCCCCNC(=O)OCc1ccc2c(Cl)cc(Cl)c(O)c2n1)OCc1ccc2c(Cl)cc(Cl)c(O)c2n1 | 0.957 µM | 2.25 µM | 1.3 µM | 2.77 µM | 1.19 µM | 2.42 µM | 1.33 µM | 2.78 µM | 0.815 µM | 2.42 µM | 0.357 µM | – | 0.311 µM | – | 1.34 µM | 2.95 µM | 0.46 µM | 2.1 µM | 1.28 µM | 2.67 µM
CC#CC(=O)N1CC[C@@H](n2c(=O)n(-c3ccc(Oc4ccccc4)cc3)c3c(N)ncnc32)C1 | 20.8 µM | > 100 µM | 51.8 µM | > 100 µM | 35.8 µM | > 100 µM | 30.3 µM | > 100 µM | 29.1 µM | > 100 µM | 14.3 µM | > 100 µM | 26.2 µM | > 100 µM | 32.9 µM | > 100 µM | 10.8 µM | 92.7 µM | 21.5 µM | > 100 µM
Clc1ccc2c(NCCNc3nc(N4CCCC4)nc4ccccc34)ccnc2c1 | 1.16 µM | 3.3 µM | 1.96 µM | 3.76 µM | 1.84 µM | 3.55 µM | 1.59 µM | 5.41 µM | 1.71 µM | 8.73 µM | 0.365 µM | 2.36 µM | 0.457 µM | > 100 µM | 1.02 µM | 2.46 µM | 1.36 µM | 3.1 µM | 1.17 µM | 3.18 µM
Nc1nc(-c2cccs2)cs1 | – | > 100 µM | – | > 100 µM | – | > 100 µM | – | > 100 µM | – | > 100 µM | – | > 100 µM | – | > 100 µM | – | > 100 µM | – | > 100 µM | – | > 100 µM
C=C(C)[C@@H]1CC[C@]2(C(N)=O)CC[C@]3(C)[C@H](CC[C@@H]4[C@@]5(C)C/C(=C/c6cccnc6)[C@H](O)C(C)(C)[C@@H]5CC[C@]43C)[C@@H]12 | 4.82 µM | > 100 µM | 5.83 µM | > 100 µM | 6.14 µM | > 100 µM | 6.8 µM | > 100 µM | 2.94 µM | > 100 µM | 4.31 µM | > 100 µM | 3.86 µM | > 100 µM | 3.82 µM | > 100 µM | 3.93 µM | > 100 µM | 6.24 µM | > 100 µM
Cn1c(=N)n[n+]([O-])c2ccccc21 | – | 3.29 µM and 4.19 µM | – | 5.51 µM and 3.92 µM | 2.42 µM and 7.01 µM | 5.88 µM and 15.6 µM | 2.67 µM and 7.11 µM | 7.7 µM and 17.6 µM | – | > 100 µM | 3.87 µM | 14.7 µM and 9.32 µM | – | 21.2 µM and 48.7 µM | – | 37.8 µM and 36.7 µM | – | 10.7 µM and 15.6 µM | – | 16 µM and 24.8 µM
CCN1CCN(c2ccc(Nc3ncc4ccc5ncn(C(C)C)c5c4n3)nc2)CC1 | 0.139 µM | 17.9 µM | 0.283 µM | 27.1 µM | 0.2 µM | 1.45 µM | 0.117 µM | 0.47 µM | 0.107 µM | 1.36 µM | 0.0402 µM | – | 0.145 µM | 3.63 µM | 0.123 µM | 0.719 µM | 0.208 µM | 0.809 µM | 0.102 µM | 1.69 µM
O=S(=O)(Nc1ccccn1)c1ccc(N=Nc2ccc(O)c3ncccc23)cc1 | 1.02 µM | > 29.8 µM | 1.39 µM | 8.02 µM | 1.72 µM | 26 µM | 1.12 µM | 50.7 µM | 1.29 µM | > 100 µM | 0.647 µM | 19.3 µM | 1.21 µM | > 95.2 µM | 1.17 µM | 15 µM | 0.418 µM | 2.14 µM | 3.42 µM | 13.6 µM
